Laboratory results from patent publication US20230398130A1, “METHODS AND COMPOSITIONS FOR DIFFERENTIATING STEM CELLS” (Massachusetts Institute of Technology, priority 2020, published 2023).

Assays:
ISC-enriched organoids [1] = assay: Primary screen, 384-well 2.5-D organoid differentiation (ENR+CD, 6 days, Target Selective Inhibitor Library, vs whole-plate median): ATP (CellTiter-Glo 3D, CTG); conditions: for Dose.FC.CTG: FC vs plate median; for Z.CTG: standard z score of FC; for Dose.FC.CTG (log 2 fold change, ATP): vs plate median
ISC-enriched organoids [2] = assay: Primary screen, 384-well 2.5-D organoid differentiation (ENR+CD, 6 days): carbachol-induced lysozyme secretion (LYZ.S); assay type: cell-based, murine; conditions: for Dose.FC.LYZ.S: primary screen, FC vs plate median; for Dose.FC.LYZ.S (log 2 fold change, carbachol-induced lysozyme secretion): vs plate median
From the text: (§1) High-throughput screening.

ISC-enriched organoids [3] = assay: Primary screen, 384-well 2.5-D organoid differentiation (ENR+CD, 6 days): basal lysozyme secretion (LYZ.NS); assay type: cell-based, murine; conditions: for Dose.FC.LYZ.NS: FC vs plate median; for Z.LYZ.NS: standard z score of FC; for Dose.FC.LYZ.NS (log 2 fold change, basal lysozyme secretion): vs plate median
From the text: as §1

[4] = primary screen, dose 0.08 uM, ENR+CD 6 days
[5] = primary screen, dose 0.40 uM, ENR+CD 6 days
[6] = primary screen, dose 2.00 uM, ENR+CD 6 days
[7] = primary screen, dose 10.00 uM, ENR+CD 6 days

Compound	Z.CTG (standard z score) (ISC-enriched organoids [1]; dose 0.08 uM)	Dose.FC.CTG (log 2 fold change, ATP) (ISC-enriched organoids [1]; dose 0.08 uM)	Z.CTG (standard z score) (ISC-enriched organoids [1]; dose 0.40 uM)	Dose.FC.CTG (log 2 fold change, ATP) (ISC-enriched organoids [1]; dose 0.40 uM)	Z.CTG (standard z score) (ISC-enriched organoids [1]; dose 2.00 uM)	Dose.FC.CTG (log 2 fold change, ATP) (ISC-enriched organoids [1]; dose 2.00 uM)	Z.CTG (standard z score) (ISC-enriched organoids [1]; dose 10.00 uM)	Dose.FC.CTG (log 2 fold change, ATP) (ISC-enriched organoids [1]; dose 10.00 uM)	Dose.FC.LYZ.S (log 2 fold change, carbachol-induced lysozyme secretion) (ISC-enriched organoids [2]; dose 0.08 uM)	Dose.FC.LYZ.S (log 2 fold change, carbachol-induced lysozyme secretion) (ISC-enriched organoids [2]; dose 0.40 uM)	Dose.FC.LYZ.S (log 2 fold change, carbachol-induced lysozyme secretion) (ISC-enriched organoids [2]; dose 2.00 uM)	Dose.FC.LYZ.S (log 2 fold change, carbachol-induced lysozyme secretion) (ISC-enriched organoids [2]; dose 10.00 uM)	Z.LYZ.NS (standard z score) (ISC-enriched organoids [3]; dose 0.08 uM)	Dose.FC.LYZ.NS (log 2 fold change, basal lysozyme secretion) (ISC-enriched organoids [3]; dose 0.08 uM)	Z.LYZ.NS (standard z score) (ISC-enriched organoids [3]; dose 0.40 uM)	Dose.FC.LYZ.NS (log 2 fold change, basal lysozyme secretion) (ISC-enriched organoids [3]; dose 0.40 uM)	Z.LYZ.NS (standard z score) (ISC-enriched organoids [3]; dose 2.00 uM)	Dose.FC.LYZ.NS (log 2 fold change, basal lysozyme secretion) (ISC-enriched organoids [3]; dose 2.00 uM)	Z.LYZ.NS (standard z score) (ISC-enriched organoids [3]; dose 10.00 uM)	Dose.FC.LYZ.NS (log 2 fold change, basal lysozyme secretion) (ISC-enriched organoids [3]; dose 10.00 uM)	other results
Cc1[nH]c2ccccc2c1CCNCc1ccc(/C=C/C(=O)NO)cc1 [Panobinostat (LBH589)]																					Dose.FC.CTG (ISC-enriched organoids [1]; Dose 0.08 uM, primary screen): 0.295 log 2 fold change; Z.CTG (ISC-enriched organoids [1]; Dose 0.08 uM): 0.706; Dose.FC.CTG (ISC-enriched organoids [1]; Dose 0.40 uM, primary screen): 0.212 log 2 fold change; Z.CTG (ISC-enriched organoids [1]; Dose 0.40 uM): 0.506; Dose.FC.CTG (ISC-enriched organoids [1]; Dose 2.00 uM, primary screen): −0.537 log 2 fold change; Z.CTG (ISC-enriched organoids [1]; Dose 2.00 uM): −1.283; Dose.FC.CTG (ISC-enriched organoids [1]; Dose 10.00 uM, primary screen): −1.003 log 2 fold change; Z.CTG (ISC-enriched organoids [1]; Dose 10.00 uM): −2.395; Dose.FC.LYZ.S (ISC-enriched organoids [2]; Dose 0.08 uM): −0.034 log 2 fold change; Dose.FC.LYZ.S (ISC-enriched organoids [2]; Dose 0.40 uM): −0.042 log 2 fold change; Dose.FC.LYZ.S (ISC-enriched organoids [2]; Dose 2.00 uM): −0.285 log 2 fold change; Dose.FC.LYZ.S (ISC-enriched organoids [2]; Dose 10.00 uM): −0.320 log 2 fold change; Dose.FC.LYZ.NS (ISC-enriched organoids [3]; Dose 0.08 uM, primary screen): 0.002 log 2 fold change; Z.LYZ.NS (ISC-enriched organoids [3]; Dose 0.08 uM): 0.014; Dose.FC.LYZ.NS (ISC-enriched organoids [3]; Dose 0.40 uM, primary screen): −0.027 log 2 fold change; Z.LYZ.NS (ISC-enriched organoids [3]; Dose 0.40 uM): −0.232; Dose.FC.LYZ.NS (ISC-enriched organoids [3]; Dose 2.00 uM, primary screen): −0.153 log 2 fold change; Z.LYZ.NS (ISC-enriched organoids [3]; Dose 2.00 uM): −1.329; Dose.FC.LYZ.NS (ISC-enriched organoids [3]; Dose 10.00 uM, primary screen): −0.217 log 2 fold change; Z.LYZ.NS (ISC-enriched organoids [3]; Dose 10.00 uM): −1.891
Cc1cc([C@@H](C)Nc2ccccc2C(=O)O)c2nc(N3CCOCC3)cc(=O)n2c1 [AZD6482]																					Dose.FC.CTG (ISC-enriched organoids [1]; [4]): 0.240 log 2 fold change; Z.CTG (ISC-enriched organoids [1]; primary screen, dose 0.08 uM): 0.572; Dose.FC.CTG (ISC-enriched organoids [1]; [5]): 0.223 log 2 fold change; Z.CTG (ISC-enriched organoids [1]; primary screen, dose 0.40 uM): 0.533; Dose.FC.CTG (ISC-enriched organoids [1]; [6]): −0.509 log 2 fold change; Z.CTG (ISC-enriched organoids [1]; primary screen, dose 2.00 uM): −1.215; Dose.FC.CTG (ISC-enriched organoids [1]; [7]): −1.203 log 2 fold change; Z.CTG (ISC-enriched organoids [1]; primary screen, dose 10.00 uM): −2.874; Dose.FC.LYZ.S (ISC-enriched organoids [2]; dose 0.08 uM, ENR+CD 6 days): 0.182 log 2 fold change; Dose.FC.LYZ.S (ISC-enriched organoids [2]; dose 0.40 uM, ENR+CD 6 days): 0.156 log 2 fold change; Dose.FC.LYZ.S (ISC-enriched organoids [2]; dose 2.00 uM, ENR+CD 6 days): −0.114 log 2 fold change; Dose.FC.LYZ.S (ISC-enriched organoids [2]; dose 10.00 uM, ENR+CD 6 days): −0.253 log 2 fold change; Dose.FC.LYZ.NS (ISC-enriched organoids [3]; [4]): 0.108 log 2 fold change; Z.LYZ.NS (ISC-enriched organoids [3]; primary screen, dose 0.08 uM): 0.944; Dose.FC.LYZ.NS (ISC-enriched organoids [3]; [5]): 0.076 log 2 fold change; Z.LYZ.NS (ISC-enriched organoids [3]; primary screen, dose 0.40 uM): 0.660; Dose.FC.LYZ.NS (ISC-enriched organoids [3]; [6]): −0.130 log 2 fold change; Z.LYZ.NS (ISC-enriched organoids [3]; primary screen, dose 2.00 uM): −1.129; Dose.FC.LYZ.NS (ISC-enriched organoids [3]; [7]): −0.248 log 2 fold change; Z.LYZ.NS (ISC-enriched organoids [3]; primary screen, dose 10.00 uM): −2.160
NC(=O)Nc1sc(-c2ccc(F)cc2)cc1C(N)=O [TPCA-1]	−0.146	−0.061	−0.010	−0.004	−0.012	−0.005	−1.269	−0.531	0.041	−0.029	−0.054	−0.294	0.627	0.072	−0.413	−0.047	−0.514	−0.059	−1.711	−0.197	
VU 0364439	0.058	0.024	−0.289	−0.121	−0.616	−0.258	0.022	0.009	0.108	0.124	−0.043	−0.038	0.715	0.082	0.099	0.011	0.089	0.010	−0.476	−0.055	
